Literature values as cited in patent publication US20160250154A1, “FILM DELIVERY SYSTEM FOR ACTIVE INGREDIENTS” (MonoSol Rx, LLC, priority 2013, published 2016).

Conditions: MSDS from PI Chemical

SMILES: CCCCCCCCCCC(=O)O[C@H]1CC[C@H]2[C@@H]3CCC4=CC(=O)CC[C@]4(C)[C@H]3CC[C@]12C [Testosterone Undecanoate]
- classification of solubility in water: insoluble in water
